# Legend:
# [1] = system: phosphorylated ERK1/2 (P-ERK1/2); assay: Western Blotting of phosphorylated ERK1/2 in U937 cells; assay type: cell-based; conditions: 10 μmol/L, 24 hours
# Procedure: (§1) The inhibition of the STAT3 and ERK signal pathways achieved by Mogroside I E1, Mogroside II A2 and mogrol was detected by Western Blotting, specifically:
# (§2) Group 1: histiocytic lymphoma U937 cells (1×10^6 cells/well) were inoculated into a 6-well culture plate for staying overnight, and 0 and 10 μmol/L of Mogroside I E1, Mogroside II A2 and mogrol were added respectively, and the culture was continued for 24 hours;
# (§3) After the termination of the cell culture, the culture solution was removed, and the residue was washed with PBS (0.01 mol/L, pH 7.4), and then a cell lysis solution containing protease inhibitors was added at an amount of 50 μl/well, and the mixture was placed in an ice bath for lysis at 4° C. for 30 min and then centrifuged at 14000 r/min for 10 min, and then total proteins were obtained from the supernatant;
# (§4) The protein concentrations were measured with bovine serum albumin (BSA) as the standard. 50 μg of the total proteins was separated by polyacrylamide gel electrophoresis with 12% […], electrophoretically transferred to a PVDF membrane (polyvinylidene fluoride membrane), and blocked for 1 h by 5% of skim milk (containing 0.1% of Tween 20), and then antibodies p-STAT3 (Tyr705) and p-Erk1/2 as well as β-actin were added, and the primary antibody was incubated at 4° C. overnight (β-actin was used as reference in loading amount); the membrane was washed for 3 times with TBS-T, 5 min each time; secondary antibody marked by horseradish peroxidase (HRP) was added for incubation at room temperature for 1 h, the membrane was washed for 3 times with a wash solution (TBS-T), 10 min each time, and then ECL was added for incubation in dark for 5 min, and subsequently, a fluorescence imaging analyzer was used for image development and scanning analysis, and the results of Western Blotting detection are shown in FIGS. 4 to 6.
# leukemia cells K562 = assay: MTT colorimetric experiment, cell growth inhibition; assay type: cell-based, human; conditions: leukemia cells K562, 0.1, 1, 10, 100, 200 and 250 μmol/L, MTT after 24 h
# Procedure: (§5) MTT colorimetric experiments were performed after 24 h, respectively: prior to the finish of each experiment, 15 μl of MTT solution in a concentration of 5 mg/ml was added to each well, and the culture was continued in dark at 37° C. for 4 h, then 150 μl of DMSO was added to each well and oscillating in a shaker for 10 min, and then the residue was placed in a microplate reader to detect the optical density OD) at 490 nm, and the inhibition rate was calculated according to the following formula: cell growth inhibition rate (control group OD490—test group OD490)/control group OD490×100%.
# [2] = system: phosphorylated STAT3 (P-STAT3, Tyr705); assay: Western Blotting of phosphorylated STAT3 in A875 cells; assay type: cell-based, human; conditions: melanoma A875 cells, 10 μmol/L, 24 hours
# Procedure: as §1
# (§6) Group 2: human melanoma A875 cells (1×10^6 cells/well) were inoculated into a 6-well culture plate for staying overnight, and 0 and 10 μmol/L of Mogroside I E1, Mogroside II A2 and mogrol were added respectively, and the culture was continued for 24 hours;
# as §3, §4
# [3] = system: phosphorylated ERK1/2 (P-ERK1/2); assay: Western Blotting of phosphorylated ERK1/2 in K562 cells; assay type: cell-based, human; conditions: leukemia cells K562, 10 μmol/L, 24 hours
# Procedure: as §1
# (§7) Group 3: leukemia cells K562 (1×10^6 cells/well) were inoculated into a 6-well culture plate for staying overnight, and 0 and 10 μmol/L of Mogroside I E1 Mogroside II A2 and mogrol were added respectively, and the culture was continued for 24 hours;
# as §3, §4
# [4] = system: phosphorylated STAT3 (P-STAT3, Tyr705); assay: Western Blotting of phosphorylated STAT3 in U937 cells; assay type: cell-based; conditions: 10 μmol/L, 24 hours
# Procedure: as §1, §2, §3, §4
# [5] = system: phosphorylated ERK1/2 (P-ERK1/2); assay: Western Blotting of phosphorylated ERK1/2 in A875 cells; assay type: cell-based, human; conditions: melanoma A875 cells, 10 μmol/L, 24 hours
# Procedure: as §1, §6, §3, §4
# [6] = system: phosphorylated STAT3 (P-STAT3, Tyr705); assay: Western Blotting of phosphorylated STAT3 in K562 cells; assay type: cell-based, human; conditions: leukemia cells K562, 10 μmol/L, 24 hours
# Procedure: as §1, §7, §3, §4
# [7] = system: human melanoma A875 cells; assay: MTT colorimetric experiment, cell growth inhibition; assay type: cell-based; conditions: melanoma A875 cells, 0.1, 1, 10, 100, 200 and 250 μmol/L, MTT after 24 h
# Procedure: as §5
# lymphoma U937 cells = assay: as above; assay type: cell-based; conditions: U937 cells, 0.1, 1, 10, 100, 200 and 250 μmol/L, MTT after 24 h
# Procedure: as §5
SMILES,expression level of phosphorylated ERK1/2 (P-ERK1/2) [1],cell growth inhibition rate (leukemia cells K562),expression level of phosphorylated STAT3 (P-STAT3) [2],expression level of phosphorylated ERK1/2 (P-ERK1/2) [3],expression level of phosphorylated STAT3 (P-STAT3) [4],expression level of phosphorylated ERK1/2 (P-ERK1/2) [5],expression level of phosphorylated STAT3 (P-STAT3) [6],cell growth inhibition rate [7],cell growth inhibition rate (lymphoma U937 cells)
C[C@H](CC[C@@H](O)C(C)(C)O)[C@H]1CC[C@@]2(C)[C@@H]3CC=C4[C@@H](CC[C@H](O[C@@H]5O[C@H](CO)[C@@H](O)[C@H](O)[C@H]5O)C4(C)C)[C@]3(C)[C@H](O)C[C@]12C [Mogroside I E1],significantly decreased,inhibitory effect on the proliferation,significantly decreased,significantly decreased,significantly decreased,significantly decreased,significantly decreased,inhibitory effect on the proliferation,inhibitory effect on the proliferation
C[C@H](CC[C@@H](O)C(C)(C)O)[C@H]1CC[C@@]2(C)[C@@H]3CC=C4[C@@H](CC[C@H](O[C@@H]5O[C@H](CO[C@@H]6O[C@H](CO)[C@@H](O)[C@H](O)[C@H]6O)[C@@H](O)[C@H](O)[C@H]5O)C4(C)C)[C@]3(C)[C@H](O)C[C@]12C [Mogroside II A2],significantly decreased,inhibitory effect on the proliferation,significantly decreased,significantly decreased,significantly decreased,significantly decreased,significantly decreased,inhibitory effect on the proliferation,inhibitory effect on the proliferation
